Converted amounts (≈) assume the structure as drawn.

As a reminder, the solubility (kinetic) is solubility judged after dilution from a stock solution rather than from solid.

For this data set the following is noted: buffer; pH 7.4; 200.0 µM.
The molecule `O=C(NCc1ccc(Cl)cc1)c1ccc2ccccc2n1` showed a kinetic solubility of 3.4 µg/mL (≈ 11.5 µM).
For `O=C(Nc1cccc(S(=O)(=O)N2CCCCC2)c1)C1CC1` the value was greater than 46.3 µg/mL.
As for `S=C(NCc1ccccc1)NCc1ccccn1`, the figure is greater than 38.6 µg/mL; as for `Fc1ccc(NC(=S)Nc2cccc3ccccc23)cc1F`, 29.3 µg/mL (≈ 93.2 µM).
For `COc1ccccc1C(=O)OCc1ccc2sc(C)nc2c1` the value was 3.1 µg/mL (≈ 9.89 µM); for `O=C(N/N=C/c1ccc([N+](=O)[O-])o1)C1CCCC1`, greater than 37.7 µg/mL.
`CC(C)(C)NS(=O)(=O)c1ccc(NC(=O)CS(=O)(=O)Cc2ccccc2)cc1` registered a kinetic solubility greater than 63.7 µg/mL.
For `COc1ccc(C(=O)CC(=O)C(=O)Nc2ccc(Cl)cc2)cc1` the value was 5.5 µg/mL (≈ 16.6 µM); for `O=C(Nc1ccc(-c2cn3c(n2)SCC3)cc1)c1ccco1`, 24.1 µg/mL (≈ 77.4 µM).
For `O=C(O)c1ccccc1C(=O)NCC(O)c1ccccc1` (stereo unspecified) the value was greater than 42.8 µg/mL; for `O=C(CSc1nccn1-c1cccc(Cl)c1)NO`, greater than 42.6 µg/mL.
As for `CC1(C)Cc2ccccc2-c2nc3n(c(=O)c21)CCCS3`, the figure is 0.9 µg/mL (≈ 3.02 µM); as for `Cc1ccc(S(=O)(=O)N2CCOCC2)cc1C(=O)N1CCN(c2ccc(C(F)(F)F)cn2)CC1`, 68.8 µg/mL (≈ 138 µM).
In turn, `O=C(c1ccc(F)cc1)N(Cc1ccco1)C1CCS(=O)(=O)C1` (stereo unspecified) returned a solubility (kinetic) greater than 50.6 µg/mL.
The molecule `CCCN(Cc1ccccc1)C(=S)Nc1cccc(C)c1C` showed a kinetic solubility of less than 0.3 µg/mL.
In turn, `CC(C)[C@H](NC(=O)c1ccccc1F)C(=O)NC1CCCCC1` came in with a solubility (kinetic) greater than 48.1 µg/mL.
With `C=CCn1c(O)c(C(C)=Nc2cccc(C(F)(F)F)c2)c(=O)[nH]c1=O`, the solubility (kinetic) came to 4 µg/mL (≈ 11.3 µM).
For `COc1ccc(NS(=O)(=O)c2ccc3[nH]c(=O)[nH]c3c2)cc1` the value was 12.7 µg/mL (≈ 39.8 µM).
As for `S=C(NCCc1c[nH]c2ccccc12)NC1CC1`, the figure is greater than 38.9 µg/mL; as for `CCc1nnc(NC(=O)CCNC(=O)c2ccccc2Cl)s1`, greater than 50.8 µg/mL.
As for `CCCCn1c(Nc2ccc(OC)cc2)nc2ccccc21`, the figure is 0.6 µg/mL (≈ 2.03 µM); as for `O=C(NCc1ccccc1)N1CCOc2ccccc21`, 31.3 µg/mL (≈ 117 µM).
Molecule `O=C(NCCN1CCOCC1)c1cc(-c2cccc(O)c2)on1` showed a kinetic solubility greater than 47.6 µg/mL.
In turn, `COC(=O)c1ccc(NC(=O)c2cccc(C)c2)cc1` gave a solubility (kinetic) of 5.4 µg/mL (≈ 20.1 µM).
As for `COc1ccc(CNC(=O)COC(=O)[C@H](Cc2ccccc2)NC(=O)c2cccs2)cc1`, the figure is 51 µg/mL (≈ 113 µM).
As for `C=CCN1C(=O)C(CC(=O)O)SC1=Nc1ccc(C(=O)O)cc1` (stereo unspecified), the solubility (kinetic) was 49.2 µg/mL (≈ 147 µM).
`CCOC(=O)/C(O)=C(\C#N)c1nc2ccccc2[nH]1` came in with a kinetic solubility greater than 38.6 µg/mL.
As for `CCOc1cc(C(=S)N2CCCC2)ccc1OC`, the figure is greater than 39.8 µg/mL.
In the case of `CC[C@H](C)[C@H](NC(N)=O)C(=O)Nc1ccc(NC(C)=O)cc1`, the solubility (kinetic) is greater than 46 µg/mL.
For `CN1CCC(N(C)S(=O)(=O)c2ccc(Cl)cc2)CC1` the value was greater than 45.4 µg/mL; for `CC(C)c1ccc(OCC(=O)NCc2ccccc2)cc1`, 3.2 µg/mL (≈ 11.3 µM); for `CN(C(=O)CSc1nc2ccccc2c(=O)n1C)C1CCS(=O)(=O)C1` (stereo unspecified), greater than 57.2 µg/mL.
For `Cc1ccc(C(=O)N2CCN(c3ccccn3)CC2)cc1[N+](=O)[O-]` the value was 44.8 µg/mL (≈ 137 µM).
For `Cc1ccc(C)c(Nc2ccc3nonc3c2[N+](=O)[O-])c1` the value was 2 µg/mL (≈ 7.04 µM).
`CN1CCCN(C(=O)COc2ccccc2Br)CC1`: the kinetic solubility was greater than 49.1 µg/mL.
For the molecule `CCC(CC)C(=O)N1CC(=O)Nc2ccc(F)cc2C1c1ccccc1` (stereo unspecified), the kinetic solubility came to 51.9 µg/mL (≈ 146 µM).
For `CCOC(=O)c1c(C)noc1-c1ccc(Br)o1` the value was less than 0.6 µg/mL.
Molecule `O=C1CSC(c2cccnc2)N1c1ccccc1` (stereo unspecified) gave a solubility (kinetic) greater than 38.4 µg/mL.
As for `O=C(NCc1ccco1)C(=O)NCC(c1ccco1)N1CCOCC1` (stereo unspecified), the figure is 47.2 µg/mL (≈ 136 µM); as for `O=C(CCl)Nc1ccc(S(=O)(=O)Nc2nccs2)cc1`, 34 µg/mL (≈ 102 µM); as for `C=Cn1ccnc1CC(O)c1ccc(OC)cc1` (stereo unspecified), 33.9 µg/mL (≈ 139 µM).

Values taken from PubChem BioAssay AID1996.
